A short description of the data set: Permeation behaviour through excised rat skin in Franz type cell. Conditions: conclusion from comparison with estradiol. It is filed as in vitro ADME, Wistar rats. The method, then: The materials used were as follows:
The excised abdominal rat skin was mounted on a Franz type cell (receiver volume: 3ml) with a water jacket connected to a water bath at 37° C. The patch was adhered to the stratum comeum side of the skin. The receiver compartment was filled with a mixture of PEG400 and water (1:3 by volume) and stirred with a star head magnetic bead driven by a constant speed motor. At predetermined times, 100 μl of sample was withdrawn from the receiver compartment, and the same volume of receptor solution was added to keep the volume constant. The drug concentration was analysed by HPLC.
For all adhesives, the amount of the drug which had permeated increased steadily with time.

Each structure is given as a SMILES string.

With `CC12CCC3C(C1CCC2=O)[C@@H](O)C[C@H]1C[C@@H](O)CCC31C` (stereo partly drawn) [7β-OH EPIA, 7β-hydroxy-epiandrosterone], the “skin permeability (in words)” value is “potential skin permeability”.

Take `C[C@]12CCC(=O)C=C1CC[C@@H]1[C@@H]2[C@@H](O)C[C@]2(C)C(=O)CC[C@@H]12` [HAD, 11β-hydroxy-4-androstene-3,17-dione]: the “skin permeability (in words)” value is reported as “potential skin permeability”.

(Values after patent US20070231373A1, “Transdermal Steriod for Formulation” (HUNTER-FLEMING LIMITED, priority 2004, published 2007).)
